# Data: patent publication US5886142A, “Radiolabeled thrombus imaging agents” (Thomas Jefferson University, priority 1997, dated 1999)
# Positions of bridges follow the written chain, without caps; N, C: chain ends. Non-standard residues stand in square brackets, D forms with d. No end group written: not given here. *: point of attachment. GABA = NCCCC(=O)O; Acm = CC(=O)NC*
# Legend:
# platelets = conditions: cited from earlier work
# four tumor cell lines = conditions: cited from earlier work
# activated platelets = experiment: Binding of Tc-99m labeled peptide to activated platelets; set-up: species or system human; conditions: 6 i.u. thrombin, 22° C., 15 minutes
# Procedure: The labeled cyclized peptide was then assayed for its ability to bind to resting and activated platelets. The platelets used in this assay were obtained from healthy human volunteers. Platelets (0.5 ml; 0.7×10^9 platelets), which were stored in a salt balanced medium for up to four days and 20 μl of the technetium labeled cyclized peptide (approximately 1.9×10^-3 mg) were dispensed into each of six test tubes. To activate the platelets, 6 i.u. of thrombin was added to three of the tubes and gently mixed until a visible clot was formed. The remaining three tubes (absent thrombin) served as controls, i.e., resting platelets. The tubes were held at 22° C. for 15 minutes and then centrifuged at 2000 g for 10 minutes. The supernatant was separated and the platelets washed with 0.9% NaCl and centrifuged again at 2000 g for 10 minutes. Radioactivity in the supernatant and washings combined, and that associated with the platelet samples, was counted and the percentage of radiolabeled platelets in each tube was determined. […]
# A thrombus imaging agent, i.e., the composition of SEQ ID NO: 7 labeled with Tc-99m, was assayed for its ability to bind to resting and activated platelets. […] Radioactivity in the supernatant and washings combined, and that associated with the platelet samples, was counted and the percentage of radiolabeled platelets in each tube was determined.
# forming clots = experiment: Binding to forming human blood clots in vitro
# Procedure: In several 1 ml syringes, approximately 0.7 ml of blood was drawn, without any anti-coagulant, from a healthy human volunteer. In four of the syringes, approximately 2 μCi of the thrombus imaging agent was added and mixed, and followed by the addition of 15 i.u. units of thrombin and mixed again. […] The fluid was expelled and reserved, and the clots were washed with 0.9% NaCl. The wash was combined with the reserved expelled fluid. The clots, still in the syringe, were placed over a gamma camera (GE 300 STARCAM) and imaged for a combined total count of 35,000. The forming clots were expelled from the syringes, collected in four separate test tubes, and placed in a gamma counter (Packard 5000 series) together with the previously reserved expelled liquid for each respective sample. The percentage of radioactivity associated with each clot was determined.
# Images of these (broken) clots are shown in FIG. 4C, in which 51±1.2% of the added radiolabel was taken up. The increasing uptake of the thrombus imaging agent over a prolonged period of time in a forming clot in vitro is analogous to the situation in patients in whom clots continue to form slowly for a long period of time.
# resting platelets = experiment: Binding of thrombus imaging agent to resting platelets; set-up: species or system human; conditions: absent thrombin, 22° C., 15 minutes
# Procedure: A thrombus imaging agent, i.e., the composition of SEQ ID NO: 7 labeled with Tc-99m, was assayed for its ability to bind to resting and activated platelets. Again, the platelets used in this assay were obtained from healthy volunteers. Platelets (0.5 ml; 0.7×10^9 platelets), which were stored for up to four days and 20 μl of the thrombus imaging agent (~1.9×10^-3 μg) were dispensed into each of six test tubes. To activate the platelets, 6 i.u. of thrombin was added to three of the tubes and gently mixed until a visible clot was formed. The remaining three tubes (absent thrombin) served as controls (i.e., resting platelets). The tubes were held at 22° C. for 15 minutes and then centrifuged at 2000 g for 10 minutes. The supernatant was separated and the platelets washed with 0.9% NaCl and centrifuged again at 2000 g for 10 minutes. Radioactivity in the supernatant and washings combined, and that associated with the platelet samples, was counted and the percentage of radiolabeled platelets in each tube was determined.
# [1] = system: thrombus in femoral artery; experiment: Gamma camera imaging of experimental arterial thrombus in vivo; set-up: species or system New Zealand white albino rabbit; conditions: rabbit, intravenous, gamma camera image 15 minutes after administration (FIG. 6)
# Excerpt: An experimental clot was induced in a femoral artery of a rabbit and imaged by scintigraphy.
# A New Zealand white albino rabbit (3.5 kg) was anesthetized with a mixture of ketamine/zylaxine and placed in the supine position on an x-ray table. The animal was not heparinized. A small incision was made in the neck to expose the right carotid artery; a catheter inserted and with the assistance of a guidewire and a fluoroscope, the catheter was advanced in the left femoral artery. […] The puncture was confirmed when contrast agent was injected. A 3 mm×2 cm thrombogenic coil (Cooks Inc., Bloomington, Ind.) was placed in the catheter, and with the help of the guidewire was lodged in the left femoral artery above the hip joint, near the bladder (FIG. 5B).
# Approximately 25 minutes after the insertion of the catheter and coil, 2.4 μCi (10 μg) of the thrombus imaging agent was injected intravenously into the animal and serial gamma camera images were obtained.
# [2] = In vitro stability of the thrombus imaging agent by periodic HPLC; assay type: physicochemical; conditions: up to 18 hours after preparation
# Procedure: The purity of the product was examined by HPLC (Rainin, Emeryville, Calif.) using a reverse phase C-18 column and gradient solvents of 0.1% TFA in water (solvent A) and 0.1% TFA in acetonitrile (solvent B). The gradient was such that at zero minutes, solvent A was 30%, reaching to […] 100% in 30 minutes. The flow rate was 1 ml/minute. The HPLC was equipped with a u.v. detector set at 278 nm, a 2" NaI (Tl) gamma counter and a rate meter. The radiolabeled composition (SEQ ID NO: 7), the thrombus imaging agent, was eluted at retention time 9.3 minutes, and the unbounded technetium at 3.7 minutes.
# The in vitro stability of the thrombus imaging agent was examined for up to 18 hours after preparation.
# pre-formed clots = experiment: Binding to pre-formed human blood clots in vitro; conditions: thrombin 15 minutes prior to addition of the agent
# Procedure: In several 1 ml syringes, approximately 0.7 ml of blood was drawn, without any anti-coagulant, from a healthy human volunteer. In four of the syringes, approximately 2 μCi of the thrombus imaging agent was added and mixed, and followed by the addition of 15 i.u. units of thrombin and mixed again. Clots were allowed to form for 15 minutes at 22° C. The fluid was expelled and reserved, and the clots were washed with 0.9% NaCl. The wash was combined with the reserved expelled fluid. The clots, still in the syringe, were placed over a gamma camera (GE 300 STARCAM) and imaged for a combined total count of 35,000. The forming clots were expelled from the syringes, collected in four separate test tubes, and placed in a gamma counter (Packard 5000 series) together with the previously reserved expelled liquid for each respective sample. The percentage of radioactivity associated with each clot was determined.
# In the four remaining test tubes, thrombin was added and allowed to incubate for 15 minutes, prior to the addition of the thrombus imaging agent. The pre-formed clots were treated as described above and measured for radioactivity
# [3] = set-up: species or system New Zealand white rabbit; conditions: rabbit, in vivo, iv
# Procedure: Alternatively, the stability of the thrombus imaging agent was determined by comparing an HPLC elution plot of the radiolabeled composition (SEQ ID NO: 7) and of the radioactivity excreted in the urine of the rabbit given the thrombus imaging agent four hours previously. For the in vivo analysis, a preparation containing the radiolabeled composition (SEQ ID NO: 7) was injected intravenously into a New Zealand white rabbit. Urine was collected from the rabbit at four hours post-injection and a 20 μl portion of which was analyzed by HPLC as described above. The animal had not voided prior to collection of this sample.
# [4] = system: CD36 transfected Jurkat cells; conditions: radioiodinated (I-125); cited from earlier work
# MDA-231 cells = experiment: Cell adhesion assay (method of Tuszynski et al.); assay type: cell-based; conditions: not radiolabeled; peptide dried in microtiter wells, one hour incubation
# Procedure: Using the method of Tuszynski et al. J. Cell Biol. 1992, 116, 209-221, the hexapeptide Cys Ser Val Thr Cys Gly (SEQ ID NO: 4) and fibrinectin were used as controls, and the composition of SEQ ID NO: 7, as a test peptide. None of the peptides or fibrinectin were radiolabeled. Fifty μl of a […] saline solution of the peptide or protein was air dried overnight in wells of a microtiter plate. After drying, the wells were blocked with 50 μl of BSA for 30 minutes and washed with Hepes-bufferedsaline. The wells were incubated for one hour with a titer of 3.3×10^4 MDA-231 cells in 100 μl of Hepes-buffered saline containing 5 mM glucose, 1 mM MgCl2 and 1 mM CaCl2. The wells were washed once with PBS and adherent cells were fixed with 3% glutaraldehyde and stained with Giemsa overnight. The total number of adherent cells were counted under light microscopy.
substance,measurement,setting,value
cyclic form: cyclic form of SEQ ID NO: 4 in which two cysteine residues are cyclized (CSVTCG; disulfide 1-5 (inferred)),effect on ADP-induced platelet aggregation,platelets,inhibited ADP-induced platelet aggregation
same,binding to four tumor cell lines relative to the native sequence,four tumor cell lines,approximately to the same extent as the native sequence
cysteine protected form: derivative of SEQ ID NO: 4 in which the two cysteine residues are blocked by acetaminomethyl (Acm) (C(Acm)SVTC(Acm)G),effect on ADP-induced platelet aggregation,platelets,inhibited ADP-induced platelet aggregation
same,binding to four tumor cell lines relative to the native sequence,four tumor cell lines,approximately to the same extent as the native sequence
VCTGSC (cysteine pairing not given here) [SEQ ID NO: 6],effect on ADP-induced platelet aggregation,platelets,no biological activity
thrombus imaging agent: the composition of SEQ ID NO: 7 labeled with Tc-99m (G[dA]GG[GABA]YC(Acm)SVTC(Acm)G; also: Tc-99m label),added radiolabel bound to activated platelets,activated platelets,12.5±1.2%
same,"gamma camera images, radioactivity in forming versus preformed clots","forming clots; FIGS. 4A and 4B, qualitative",more radioactivity in the forming clots than in the preformed clots
same,radioactivity level measured in the forming clot,"forming clots; agent added before thrombin, 15 minutes at 22° C.",27.6±0.2%
same,added radiolabel taken up by forming clots,forming clots; incubated for 2 hours at 22° C.,51±1.2%
same,added radiolabel bound to resting platelets,resting platelets,2.1±0.5%
same,uptake of radioactivity at the site of the punctured artery (clot),[1],intense uptake of radioactivity
same,quantity of free Tc-99m versus time of preparation,[2],had not increased
same,radioactivity level measured in the preformed clots,pre-formed clots,6.4±3.2%
same,quantity of free Tc-99m in urine versus the injected preparation,[3],substantially the same
YCSVTCG (cysteine pairing not given here) [SEQ ID NO: 3],binding to CD36 transfected Jurkat cells,[4],binds strongly
"labeled cyclized peptide: cyclized peptide Cys Ser Val Thr Cys Gly (SEQ ID NO: 4) directly labeled with Tc-99m at sulfhydryl moieties (CSVTCG; also: cyclized, kind not given here, directly labeled with Tc-99m at sulfhydryl moieties)",added radiolabel bound to activated platelets,activated platelets,< 2%
Gly (D)Ala Gly Gly Aba Tyr Cys(Acm) Ser Val Thr Cys(Acm) Gly (G[dA]GG[GABA]YC(Acm)SVTC(Acm)G) [SEQ ID NO: 7],lower cell adhesion as compared to fibronectin,MDA-231 cells,approximately 17%
same,"proportion of cells demonstrating cell adhesion, test peptide versus hexapeptide (SEQ ID NO: 4)",MDA-231 cells,No statistical difference
ANKHYF [SEQ ID NO: 5],effect on ADP-induced platelet aggregation,platelets,no biological activity
